Reference: patent publication US20240317718A1, “SUBSTITUTED HETEROCYCLIC COMPOUNDS” (BRISTOL-MYERS SQUIBB COMPANY, priority 2021, published 2024)

Legend:
in vitro = conditions: human, Caco-2, pH 7.4
[1] = system: IFNα-induced pSTAT5 (Tyk2-mediated signal transduction); test: IFNα-induced STAT phosphorylation in human whole blood; format: cell-based; conditions: 1 h incubation with compound, 1000 U/mL IFNα A/D for 15 min, CD3 positive population, read-out: Human Whole blood IFNa pSTAT5 IC50
Procedure: IFNα-Induced STAT Phosphorylation in Human Whole Blood
After an hour long incubation with compound, human whole blood (drawn with ACD-A as anticoagulant) was stimulated with 1000 U/mL recombinant human IFNα A/D (R&D Systems 11200-2) for 15 min. The stimulation was stopped by adding Fix/Lyse buffer (BD 558049). Cells were stained with a CD3 FITC antibody (BD 555916), washed, and permeabilized on ice using Perm III buffer (BD 558050). Cells were then stained with an Alexa-Fluor 647 pSTAT5 (pY694) antibody (BD 612599) for 60 min prior to analysis on the iQue Plus. The amount of pSTAT5 expression was quantitated by median fluorescence intensity after gating on the CD3 positive population.

| SMILES | Papp A→B at 2 h, 3 μM (in vitro) [×10⁻⁶ cm/s] | efflux ratio at 2 h, 3 μM (in vitro) | IC50 [1] [nM] |
| --- | --- | --- | --- |
| [2H]C([2H])([2H])NC(=O)c1nnc(NC(=O)C2CC2)cc1Nc1ccc(F)c(-c2cnn(C)c2)c1OC [Example 26, 6-cyclopropaneamido-4-{[4-fluoro-2-methoxy-3-(1-methyl-1H-pyrazol-4-yl)phenyl]amino}-N-(^2H3)methylpyridazine-3-carboxamide] | 30 | 1 | 201 |
| [2H]C([2H])([2H])NC(=O)c1nnc(NC(=O)C2CC2)cc1Nc1cc(F)cc(-c2cnn(C)c2)c1OC [Example 27, 6-cyclopropaneamido-4-{[5-fluoro-2-methoxy-3-(1-methyl-1H-pyrazol-4-yl)phenyl]amino}-N-(^2H3)methylpyridazine-3-carboxamide] | 31.2 | 0.9 | 177 |
| [2H]C([2H])([2H])NC(=O)c1nnc(NC(=O)C2CC2)cc1Nc1cccc(-c2cnn(C3CC3)c2)c1OC [Example 28, 6-cyclopropaneamido-4-{[3-(1-cyclopropyl-1H-pyrazol-4-yl)-2-methoxyphenyl]amino}-N-(^2H3)methylpyridazine-3-carboxamide] | 27.4 | 0.7 | 425 |
| [2H]C([2H])([2H])NC(=O)c1nnc(NC(=O)C2CC2)cc1Nc1cccc(-c2cnc(C#N)cn2)c1OC [Example 29, 4-{[3-(5-cyanopyrazin-2-yl)-2-methoxyphenyl]amino}-6-cyclopropaneamido-N-(^2H3)methylpyridazine-3-carboxamide] | 31.7 | 0.5 | 417 |
| [2H]C([2H])([2H])NC(=O)c1nnc(NC(=O)C2CC2)cc1Nc1nccc(-c2cnn(C3CC3)c2)c1OC [Example 30, 6-cyclopropaneamido-4-{[4-(1-cyclopropyl-1H-pyrazol-4-yl)-3-methoxypyridin-2-yl]amino}-N-(^2H3)methylpyridazine-3-carboxamide] | 22.7 | 0.5 | 193 |
| [2H]C([2H])([2H])NC(=O)c1nnc(NC(=O)C2CC2)cc1Nc1nccc(-c2cn(C)nc2C)c1OC [Example 31, 6-cyclopropaneamido-4-{[4-(1,3-dimethyl-1H-pyrazol-4-yl)-3-methoxypyridin-2-yl]amino}-N-(^2H3)methylpyridazine-3-carboxamide] | 39.3 | 1 | 289 |
| [2H]C([2H])([2H])NC(=O)c1nnc(NC(=O)C2CC2)cc1Nc1nccc(-c2cnn(C)c2C)c1OC [Example 32, 6-cyclopropaneamido-4-{[4-(1,5-dimethyl-1H-pyrazol-4-yl)-3-methoxypyridin-2-yl]amino}-N-(^2H3)methylpyridazine-3-carboxamide] | 31.5 | 0.9 | 437 |
| [2H]C([2H])([2H])NC(=O)c1nnc(NC(=O)C2CC2)cc1Nc1nccc(-c2nccs2)c1OC [Example 33, 6-cyclopropaneamido-4-{[3-methoxy-4-(1,3-thiazol-2-yl)pyridin-2-yl]amino}-N-(^2H3)methylpyridazine-3-carboxamide] | 38.3 | 0.4 | 207 |
| [2H]C([2H])([2H])NC(=O)c1nnc(NC(=O)C2CC2)cc1Nc1cccc(-c2ccns2)c1OC [Example 34, 6-cyclopropaneamido-4-{[2-methoxy-3-(1,2-thiazol-5-yl)phenyl]amino}-N-(^2H3)methylpyridazine-3-carboxamide] | 23.3 | 1.1 | 474 |
| [2H]C([2H])([2H])NC(=O)c1nnc(NC(=O)C2CC2)cc1Nc1cccc(-c2ccsn2)c1OC [Example 35, 6-cyclopropaneamido-4-{[2-methoxy-3-(1,2-thiazol-3-yl)phenyl]amino}-N-(^2H3)methylpyridazine-3-carboxamide] | 42.2 | 0.5 | 121 |
